From patent US5593984A, “Cephalosporin derivatives” (Yuhan Corporation, priority 1992, dated 1997)
Converted amounts (≈) assume the structure as drawn.

Experiments:
Assay type in all cases: cell-based
[1] = tested on: Ser. marcescens IFO 12648; experiment: MIC by agar dilution, Ser. marcescens IFO 12648; details: Serratia marcescens, IFO12648, 17 h; Ser. marcescens IFO 12648; agar dilution, Mueller-Hinton agar; read-out: Minimal Inhibitory Concentration (MIC)
In short: (§1)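 Growth inhibition was scored after 17±1 hours at 35°-37° C. on Mueller-Hinton agar bearing twofold compound dilutions, with strains seeded at 10^6 CFU per ml; lowest inhibiting level taken as MIC.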

[2] = tested on: M. morganii DY-1; experiment: MIC by agar dilution, M. morganii DY-1; details: Morganella morganii, DY1, 17 h; M. morganii DY-1; agar dilution, Mueller-Hinton agar; read-out: Minimal Inhibitory Concentration (MIC)
In short: as §1

[3] = tested on: Staph. aureus C-57; experiment: MIC by agar dilution, Staph. aureus C-57; details: Staphylococcus aureus, C57, 17 h, Mueller-Hinton agar, read-out: Minimal Inhibitory Concentration (MIC)
In short: as §1

[4] = tested on: Staph. aureus C-5216; experiment: MIC by agar dilution, Staph. aureus C-5216; details: Staphylococcus aureus, C5216, 17 h, Mueller-Hinton agar, read-out: Minimal Inhibitory Concentration (MIC)
In short: as §1

[5] = tested on: Ps. aeruginosa NCTC 10490; experiment: MIC by agar dilution, Ps. aeruginosa NCTC 10490; details: Pseudomonas aeruginosa, NCTC10490, 17 h, Mueller-Hinton agar, read-out: Minimal Inhibitory Concentration (MIC)
In short: as §1

[6] = tested on: B. subtilis ATCC 6633; experiment: MIC by agar dilution, B. subtilis ATCC 6633; details: Bacillus subtilis, ATCC6633, 17 h; B. subtilis ATCC 6633; agar dilution, Mueller-Hinton agar; read-out: Minimal Inhibitory Concentration (MIC)
In short: as §1

[7] = tested on: Staph. aureus C-5113; experiment: MIC by agar dilution, Staph. aureus C-5113; details: Staphylococcus aureus, C5113, 17 h, Mueller-Hinton agar, read-out: Minimal Inhibitory Concentration (MIC)
In short: as §1

[8] = tested on: E. coli NIHJ JC-2; experiment: MIC by agar dilution, E. coli NIHJ JC-2; details: Escherichia coli, NIHJJC2, 17 h; E. coli NIHJ JC-2; agar dilution, Mueller-Hinton agar; read-out: Minimal Inhibitory Concentration (MIC)
In short: as §1

[9] = tested on: Ps. aeruginosa DY-2; experiment: MIC by agar dilution, Ps. aeruginosa DY-2; details: Pseudomonas aeruginosa, DY2, 17 h; Ps. aeruginosa DY-2; agar dilution, Mueller-Hinton agar; read-out: Minimal Inhibitory Concentration (MIC)
In short: as §1

[10] = tested on: Staph. aureus ATCC 6538P; experiment: MIC by agar dilution, Staph. aureus ATCC 6538P; details: Staphylococcus aureus, ATCC6538P, 17 h; Staph. aureus ATCC 6538P; agar dilution, Mueller-Hinton agar; read-out: Minimal Inhibitory Concentration (MIC)
In short: as §1

[11] = tested on: Prov. stuartii IFO 12930; experiment: MIC by agar dilution, Prov. stuartii IFO 12930; details: Providencia stuartii, IFO12930, 17 h, Mueller-Hinton agar, read-out: Minimal Inhibitory Concentration (MIC)
In short: as §1

[12] = tested on: K. pneumoniae NCTC 9632; experiment: MIC by agar dilution, K. pneumoniae NCTC 9632; details: Klebsiella pneumoniae, NCTC9632, 17 h; K. pneumoniae NCTC 9632; agar dilution, Mueller-Hinton agar; read-out: Minimal Inhibitory Concentration (MIC)
In short: as §1

[13] = tested on: E. coli DY-1; experiment: MIC by agar dilution, E. coli DY-1; details: Escherichia coli, DY1, 17 h; E. coli DY-1; agar dilution, Mueller-Hinton agar; read-out: Minimal Inhibitory Concentration (MIC)
In short: as §1

[14] = tested on: Staph. aureus Smith; experiment: MIC by agar dilution, Staph. aureus Smith; details: Staphylococcus aureus, 17 h, Mueller-Hinton agar, read-out: Minimal Inhibitory Concentration (MIC)
In short: as §1

[15] = tested on: Ent. aerogenes IFO 12979; experiment: MIC by agar dilution, Ent. aerogenes IFO 12979; details: Klebsiella aerogenes, IFO12979, 17 h, Mueller-Hinton agar, read-out: Minimal Inhibitory Concentration (MIC)
In short: as §1

[16] = tested on: Ent. cloacae IFO 13535; experiment: MIC by agar dilution, Ent. cloacae IFO 13535; details: Enterobacter cloacae, IFO13535, 17 h; Ent. cloacae IFO 13535; agar dilution, Mueller-Hinton agar; read-out: Minimal Inhibitory Concentration (MIC)
In short: as §1

[17] = tested on: P. vulgaris NCTC 8313; experiment: MIC by agar dilution, P. vulgaris NCTC 8313; details: Proteus vulgaris, NCTC8313, 17 h; P. vulgaris NCTC 8313; agar dilution, Mueller-Hinton agar; read-out: Minimal Inhibitory Concentration (MIC)
In short: as §1

[18] = tested on: Ps. aeruginosa ATCC 10145; experiment: MIC by agar dilution, Ps. aeruginosa ATCC 10145; details: Pseudomonas aeruginosa, ATCC10145, 17 h, Mueller-Hinton agar, read-out: Minimal Inhibitory Concentration (MIC)
In short: as §1

[19] = tested on: S. epidermidis ATCC 12228; experiment: MIC by agar dilution, S. epidermidis ATCC 12228; details: Staphylococcus epidermidis, ATCC12228, 17 h; S. epidermidis ATCC 12228; agar dilution, Mueller-Hinton agar; read-out: Minimal Inhibitory Concentration (MIC)
In short: as §1

[20] = tested on: E. coli No. 29; experiment: MIC by agar dilution, E. coli No. 29; details: Escherichia coli, 17 h; E. coli No. 29; agar dilution, Mueller-Hinton agar; read-out: Minimal Inhibitory Concentration (MIC)
In short: as §1

Row | MIC [1] | MIC [2] | MIC [3] | MIC [4] | MIC [5] | MIC [6] | MIC [7] | MIC [8] | MIC [9] | MIC [10] | MIC [11] | MIC [12] | MIC [13] | MIC [14] | MIC [15] | MIC [16] | MIC [17] | MIC [18] | MIC [19] | MIC [20] | Structure (SMILES)
1 | 0.012 µg/mL (≈ 0.0221 µM) | 0.012 µg/mL (≈ 0.0221 µM) | 50 µg/mL (≈ 92 µM) | 0.78 µg/mL (≈ 1.43 µM) | 0.1 µg/mL (≈ 0.184 µM) | 0.1 µg/mL (≈ 0.184 µM) | 3.13 µg/mL (≈ 5.76 µM) | ≤ 0.006 µg/mL | 3.13 µg/mL (≈ 5.76 µM) | 0.2 µg/mL (≈ 0.368 µM) | ≤ 0.006 µg/mL | 0.012 µg/mL (≈ 0.0221 µM) | ≤ 0.006 µg/mL | 0.78 µg/mL (≈ 1.43 µM) | ≤ 0.006 µg/mL | 0.05 µg/mL (≈ 0.092 µM) | 0.012 µg/mL (≈ 0.0221 µM) | 0.39 µg/mL (≈ 0.717 µM) | 0.05 µg/mL (≈ 0.092 µM) | ≤ 0.006 µg/mL | CON=C(C(=O)NC1C(=O)N2C(C(=O)[O-])=C(C[n+]3ccn4ccc(CO)c4c3)CSC12)c1csc(N)n1 (stereo not drawn) [Ex. 30, 7-β-[(Z)-2-(2-aminothiazol-4-yl)2-methoxyiminoacetamido]-3-(8-hydroxymethylpyrrolo[1,2-a]pyrazinium-2-yl)methyl-3-cephem-4-carboxylate]
2 | 0.05 µg/mL (≈ 0.0895 µM) | 0.1 µg/mL (≈ 0.179 µM) | 50 µg/mL (≈ 89.5 µM) | 1.56 µg/mL (≈ 2.79 µM) | 0.2 µg/mL (≈ 0.358 µM) | 0.2 µg/mL (≈ 0.358 µM) | 1.56 µg/mL (≈ 2.79 µM) | 0.025 µg/mL (≈ 0.0448 µM) | 3.13 µg/mL (≈ 5.6 µM) | 0.78 µg/mL (≈ 1.4 µM) | 0.012 µg/mL (≈ 0.0215 µM) | 0.05 µg/mL (≈ 0.0895 µM) | 0.025 µg/mL (≈ 0.0448 µM) | 1.56 µg/mL (≈ 2.79 µM) | 0.025 µg/mL (≈ 0.0448 µM) | 0.1 µg/mL (≈ 0.179 µM) | 0.05 µg/mL (≈ 0.0895 µM) | 1.56 µg/mL (≈ 2.79 µM) | 0.1 µg/mL (≈ 0.179 µM) | 0.025 µg/mL (≈ 0.0448 µM) | CO/N=C(\C(=O)N[C@@H]1C(=O)N2C(C(=O)[O-])=C(C[n+]3ccn4c(C(C)O)ccc4c3)CS[C@H]12)c1nsc(N)n1 (stereo partly drawn) [Ex. 51, 7-β-[(Z)-2-(5-amino-1,2,4-thiadiazol-3-yl)-2-methoxyiminoacetamido]-3-[6-(1-hydroxyethyl)pyrrolo[1,2-a]-pyrazinium-2-yl]methyl-3cephem-4-carboxylate]
3 | 0.05 µg/mL (≈ 0.089 µM) | 0.025 µg/mL (≈ 0.0445 µM) | 25 µg/mL (≈ 44.5 µM) | 1.56 µg/mL (≈ 2.78 µM) | 0.2 µg/mL (≈ 0.356 µM) | 0.1 µg/mL (≈ 0.178 µM) | 3.13 µg/mL (≈ 5.57 µM) | ≤ 0.006 µg/mL | 3.13 µg/mL (≈ 5.57 µM) | 0.2 µg/mL (≈ 0.356 µM) | 0.012 µg/mL (≈ 0.0214 µM) | 0.025 µg/mL (≈ 0.0445 µM) | ≤ 0.006 µg/mL | 0.78 µg/mL (≈ 1.39 µM) | 0.025 µg/mL (≈ 0.0445 µM) | 0.1 µg/mL (≈ 0.178 µM) | 0.012 µg/mL (≈ 0.0214 µM) | 0.78 µg/mL (≈ 1.39 µM) | 0.1 µg/mL (≈ 0.178 µM) | ≤ 0.006 µg/mL | Nc1nc(/C(=N/OCF)C(=O)N[C@@H]2C(=O)N3C(C(=O)[O-])=C(C[n+]4ccn5ccc(CO)c5c4)CS[C@H]23)cs1 [Ex. 32, 7-β-[(Z)-2-(2-aminothiazol-4-yl)2-fluoromethoxyiminoacetamido]-3-(8-hydroxymethylpyrrolo[1,2-a]pyrazinium-2-yl)methyl-3-cephem-4-carboxylate]
4 | 0.2 µg/mL (≈ 0.331 µM) | 0.2 µg/mL (≈ 0.331 µM) | 25 µg/mL (≈ 41.4 µM) | 1.56 µg/mL (≈ 2.58 µM) | 3.13 µg/mL (≈ 5.18 µM) | 0.39 µg/mL (≈ 0.646 µM) | 1.56 µg/mL (≈ 2.58 µM) | 0.1 µg/mL (≈ 0.166 µM) | 25 µg/mL (≈ 41.4 µM) | 1.56 µg/mL (≈ 2.58 µM) | 0.1 µg/mL (≈ 0.166 µM) | 0.1 µg/mL (≈ 0.166 µM) | 0.025 µg/mL (≈ 0.0414 µM) | 1.56 µg/mL (≈ 2.58 µM) | 0.05 µg/mL (≈ 0.0828 µM) | 0.39 µg/mL (≈ 0.646 µM) | 0.012 µg/mL (≈ 0.0199 µM) | 6.25 µg/mL (≈ 10.3 µM) | 0.1 µg/mL (≈ 0.166 µM) | 0.05 µg/mL (≈ 0.0828 µM) | CCO/N=C(\C(=O)N[C@@H]1C(=O)N2C(C(=O)[O-])=C(C[n+]3ccn4c(C(C)=O)cc(Cl)c4c3)CS[C@H]12)c1csc(N)n1 [Ex. 35, 7-β-[(Z)-2-(2-aminothiazol-4-yl)-2-ethoxyiminoacetamido]-3-(6-acetyl-8-chloropyrrolo[1,2-a]pyrazinium-2-yl)methyl-3-cephem-4-carboxylate]
